Key:
NOD mice = conditions: cited from earlier work
[1] = test system: CD4-mediated, HLA-II restricted immune response; conditions: patients with IDDM; cited from earlier work
[2] = test system: peripheral blood mononuclear cells (PBMCs); experiment: ELISPOT of IFN-γ and IL-10 secreting cells in PBMCs of DQ8+ type 1 diabetic adolescents; type: cell-based, human; conditions: for number of IFN-γ secreting cells / number of IL-10 secreting cells / ratio of IL-10/IFN-γ: peptide 50 μM, DQ8+ type 1 diabetic adolescents; for number of IFN-γ secreting cells / number of IL-10 secreting cells: 48 hours, 1×10^5 PBMCs/well, ±SEM
Procedure: Ten diabetic patients were selected (6 females, 4 males; age range: 7-16 years of age) which were positive for the DQ8 allele. With the assistance of endocrine pediatricians, appropriate arrangements were made for two sampling sessions. Written and informed consent was obtained from the parents of the adolescents. For each patient, 20 ml of blood was collected in tubes containing EDTA. These tubes were immediately sent to Cypro SA (Brussels) where peripheral blood mononuclear cells (PBMCs) were isolated using the Lymphoprep™ (Invitrogen) isolation technique.
ELISPOT Assays (Cypro): The general methodology has been described by Tary-Lehmann et al. (see, e.g., Tary-Lahmann et al. (1998) Transplantation 66:219-224). Briefly, PBMCs were seeded at a concentration of 1×10^5/well in 96-well plates coated with anti-human IFN-γ monoclonal antibody (mAb) (Serpime/Nodia) or anti-IL-10 mAb (BD-Pharmingen) in the presence or absence of either PHA (Sigma, 1 μg/ml)+LPS (Sigma, 1 μg/ml), Purified Protein Derivative (PPD, 5 μg/ml), Insulin B9-23 (SEQ ID NO:3 ) (10 and 50 μM), IGF-2 B11-25 (SEQ ID NO:2 )(10 and 50 μM After 48 hours of incubation at 37° C., 5% CO2 on a plane surface, wells were washed three times with PBS Tween 0.25%, then blot dried.
After 1 hour-incubation in a humid room at ambient temperature, the plates were washed and the substrate AEC (3-amino-9-ethylcarazole)+30% H2O2 were added. After 15 minutes (for IFN-γ) or 30 minutes (for IL-10) of incubation at ambient temperature, spots appeared and the reaction was stopped by washing the plates under water. After drying, the spots were counted by image analyzer assisted by computer with filters specific for each cytokine.
A Wilcoxon test was used for statistical analyses (non-parametric paired values).

Igf2-/- and wt mice [3] = experiment: Anti-IGF-2 humoral response after i.p. immunization of Igf2-/- and wt mice (ELISA); type: in vivo, mouse; conditions: i.p. immunization 5 μg
Procedure: (§1) Mice immunization. Igf2^−/− and wt mice were injected i.p. with 5 μg of rmIGF-2 (R&D Systems) or with 5 μg of human insulin (Roche) to study the humoral response and with 50 μg of murine IGF-2-derived B11-25 (NEOSYSTEM)(SEQ ID NO:2) to analyze the cellular response. CFA (Sigma-Aldrich) (v/v) is used for the first injection and IFA (Sigma-Aldrich) (v/v) for the other injections. For humoral response, three injections separated by 20 days were performed. Blood test was performed 15 days after each injection in agreement with the Liege University ethic committee. For cellular response, two injections separated by 15 days were performed.
(§2) Dosage of anti-IGF-2 and anti-insulin Abs. Abs against IGF-2 and insulin were detected and quantified using a specific ELISA procedure. Microplates (Nunc Maxisorp 468667; VVWR International) were incubated overnight at 4° C. with 2 μg/ml rmIGF-2 (R&D Systems) or 5 μg/ml human insulin (Roche) in 100 μl of 0.1 M NaHCO3 (pH 8.4). From this step, the procedure was identical between the two kinds of ELISA. SL buffer (0.01 M phosphate buffer, pH 7.4) was used as the basic buffer, and all reactions were incubated at 37° C. under agitation. […] The reaction was stopped with 50 μl of 0.4 N HCl, and the absorbance was measured at 450-620 nm with a spectrophotometer.

Igf2-/- and wt mice [4] = experiment: Anti-insulin humoral response after i.p. immunization of Igf2-/- and wt mice (ELISA); type: in vivo, mouse; conditions: three i.p. injections, mice with day 0 anti-insulin Ab lower than 1 in OD
Procedure: as §1
as §2, with “spectrophotometer. […]” for “spectrophotometer.”

[5] = cited from earlier work
PBMCs [6] = experiment: IL-10 concentration in PBMC culture supernatants by ELISA; type: cell-based, human; conditions: 20h-culture
Procedure: PBMCs were isolated from the blood of 10 healthy controls and 13 adult type 1 diabetics. After a 20h-culture, IL-10 concentration in the supernatants was measured using a specific ELISA (BioSource, Nivelles, Belgium).

PBMCs [7] = experiment: IL10 transcription in PBMCs by TaqMan real-time PCR; type: cell-based, human; conditions: 50 μM, 20 hours
Procedure: Total RNA was extracted with the RNeasy Mini Kit (Qiagen, Calif., USA) from PBMCs isolated from 10 healthy controls and from 11 Type 1 diabetics, and cultured for 20 hours with IGF-2 B11-25 (SEQ ID NO:2)(50 μM) or Insulin B9-23 (SEQ ID NO:3 ) (50 μM). Total RNA was measured with a Nanodrop (NanoDrop Technologies, Wilmington, USA). Reverse transcription was performed with Transcriptor First Strand cDNA Synthesis Kit (Roche, Germany). PCR was performed with the following probes:
IL10 transcripts were then quantified using a TaqMan procedure. Standard curves were established from a lot of plasmid containing IL10 according to the procedure described by other authors (Giulietti et al., Methods 25: 386, 2001). […] A strong positive relationship was evidenced between IL-10 concentrations as measured by ELISA and the number of IL10 transcripts as quantified by real-time PCR (R^2=0.62, P<0.0001; Spearman's test). Conclusions

[8] = test system: spleen cells from Igf2-/- and wt mice; experiment: IL-2 production by IGF-2-specific T cells (spleen cells) after immunization and in vitro stimulation; type: cell-based, mouse; conditions: spleen cells in culture with murine IGF-2-derived B11-25 after two i.p. injections
Procedure: as §1
IL-2 production. After 48, 72, and 96 h of MLR or after 24 and 48 h of specific T cell culture, 800 μl were removed of each condition and IL-2 production released by Igf2^−/− and wt T cells in MLR was assessed by specific ELISA (Biosource Europe).
Statistical analyses. The t test was used to compare Igf2^−/− and wt mice in IL-2 production and Ab production after immunization. The level of significance was p<0.05.

[9] = test system: peripheral blood mononuclear cells (PBMCs); experiment: ELISpot of IL-10 secreting cells in PBMCs from healthy controls and adult Type 1 diabetics; type: cell-based, human; conditions: 50 μM, 48h
Procedure: In comparison to the Insulin B9-23 peptide (SEQ ID NO:3), the presentation of IGF-2 B11-25 (SEQ ID NO:2) increases the number of IL-10 secreting cells in peripheral blood mononuclear cells (PBMCs) from adult Type I diabetics. PBMCs were isolated by a conventional method from the blood of 6 healthy controls and 18 adult Type 1 diabetic patients. The PBMCs were cultured for 48h in 96-well dishes in the presence of IGF-2 B11-25 (SEQ ID NO:2)(50 μM) or […] (50 μM).
The data are presented in FIG. 4 as the number of spots per 10^5 cells. Statistical analyses were performed using Wilcoxon's test.

Question: Which anaphylaxis (NOD mice) does the source give for “SHLVEALYLVCGERG (listed as Homo sapiens) [insulin B9-23, reference compound]” here?
Answer: Its anaphylaxis is “induces fatal anaphylaxis”.

Question: What about the incidence of diabetes (NOD mice) of the same substance?
Answer: The incidence of diabetes was “accelerates incidence of diabetes”.

Question: And the “IFN-γ production in response to peptide presentation” value [1]?
Answer: Its value is “high production of IFN-γ”.

Question: What about the “number of IFN-γ secreting cells” value [2] of the same substance?
Answer: The value was 88.90±23.82.

Question: And the “number of IL-10 secreting cells” value [2]?
Answer: Its value is 701.8±160.9.

Question: What about the “ratio of IL-10/IFN-γ” value [2] of the same substance?
Answer: Its value is 10.22±1.99.

Question: For “IGF-2: rmIGF-2 (R&D Systems), insulin-like growth factor 2 used for mice immunization”, which anti-IGF-2 humoral response (Igf2-/- and wt mice [3]; Igf2-deficient mice) is on record?
Answer: Its anti-IGF-2 humoral response is “rapidly induced anti-IGF-2 Abs”.

Question: What about the “anti-IGF-2 T-dependent humoral response (IgG1, IgG2a, IgG2b)” value (Igf2-/- and wt mice [3]; wt mice) of the same substance?
Answer: The value was “no T-dependent response was observed”.

Question: With “insulin: human insulin (Roche) for mice immunization; insulin given orally or subcutaneously in cited trials” as the substance, how does the “anti-insulin Ig-specific humoral response, Igf2-/- compared with Igf2+/+ mice” value (Igf2-/- and wt mice [4]) read?
Answer: Its value is “higher anti-insulin Ig-specific humoral response”.

Question: And the “protection of residual β cell function” value ([5]; oral administration, recent-onset IDDM)?
Answer: The value was “failed to protect the residual β cell function”.

Question: What about the “delay or prevention of onset of disease” value ([5]; subcutaneous administration, high-risk relatives of patients with IDDM) of the same substance?
Answer: The value was “did not delay or prevent the onset of disease”.

Question: For “GELVDTLQFVCGDRG (listed as Homo sapiens) [IGF-2 B11-25]”, which “IL-10 concentration in supernatants versus basal conditions or Insulin B9-23” value (PBMCs [6]; PBMC cultures from Type 1 diabetics) is on record?
Answer: The value was “significantly increased”.

Question: What about the “IL-10 concentration in supernatants versus basal conditions or Insulin B9-23” value (PBMCs [6]; PBMC cultures from healthy controls) of the same substance?
Answer: Its value is “significantly increased”.

Question: What about the IL10 transcription (PBMCs [7]; PBMCs from adult Type 1 diabetics) of the same substance?
Answer: Its IL10 transcription is “very significantly increases”.

Question: What about the IL10 transcription (PBMCs [7]; PBMCs from healthy controls) of the same substance?
Answer: The IL10 transcription was “very significantly increases”.

Question: And the “IL-2 production, Igf2-/- compared with wt mice” value [8]?
Answer: Its value is “significant increase of IL-2 production”.

Question: What about the “ratio IL-10/IFN-γ, fold higher than after insulin B9-23” value ([2]; 50 μM, versus insulin B9-23) of the same substance?
Answer: The value was about 7 fold.

Question: What about the “number of IFN-γ secreting cells” value [2] of the same substance?
Answer: Its value is 45.60±11.67.

Question: And the “number of IL-10 secreting cells” value [2]?
Answer: Its value is 1162±208.6.

Question: And the “ratio of IL-10/IFN-γ” value [2]?
Answer: The value was 67.36±37.58.

Question: What about the “number of IL-10 secreting cells versus Insulin B9-23” value ([9]; PBMCs from healthy controls) of the same substance?
Answer: Its value is “no significant difference”.

Question: What about the “number of IL-10 secreting cells versus Insulin B9-23” value ([9]; PBMCs of adult Type 1 diabetics) of the same substance?
Answer: Its value is “significantly higher”.

— patent US20070172453A1, “Tolerogenic approach for type 1 diabetes” (priority 2002, published 2007)
